# Reference: US20240287138A1, “CYCLIC PEPTIDES FOR INHIBITING TNF RECEPTOR 1 ACTIVITY” (Merck Sharp & Dohme LLC, priority 2023, published 2024)
# Numbered stars: 1 amine (or outer) side, 2 acyl side, 3 side chain; on linkers, the order of the positions; unused ones are H or OH. Bridge positions count the residues as written; N and C are the ends. Square brackets hold non-standard residues; d marks the D form. Peptide text beside a SMILES is read from it. * marks the point of attachment. Trp(βS-Me,7-OMe) = COc1cccc2c([C@H](C)[C@H](N)C(=O)O)c[nH]c12; X5 = COc1cccc2[nH]cc([C@H](C)[C@H](N[*:1])C(=O)[*:2])c12; Morpholine(3S-CO,6,6-Me2) = CC1(C)CN[C@H](C(=O)O)CO1; Trp(7-CN) = N#Cc1cccc2c(C[C@H](N)C(=O)O)c[nH]c12; Trp(7-Cl) = N[C@@H](Cc1c[nH]c2c(Cl)cccc12)C(=O)O; X29 = NC(=O)Cc1cccc(C[C@H](N[*:1])C(=O)[*:2])c1; Phe(4-CONH2) = NC(=O)c1ccc(C[C@H](N)C(=O)O)cc1; Phe(4-COOH) = N[C@@H](Cc1ccc(C(=O)O)cc1)C(=O)O; Trp(7-F) = N[C@@H](Cc1c[nH]c2c(F)cccc12)C(=O)O; Trp(7-aza) = N[C@@H](Cc1c[nH]c2ncccc12)C(=O)O; Pip(5R-OH) = O=C(O)[C@@H]1CC[C@@H](O)CN1; X1 = O=C([C@@H]1CC[C@H](N[*:1])C1)[*:2]; Gly(Nα-CH2CH2CONH2) = NC(=O)CCNCC(=O)O; X19 = O=C([C@H](Cc1ccncn1)N[*:1])[*:2]; dPro(4,4-F2) = O=C(O)[C@H]1CC(F)(F)CN1; Pip(4-aza) = O=C(O)[C@@H]1CNCCN1; hPhe = N[C@@H](CCc1ccccc1)C(=O)O; 4Pal = N[C@@H](Cc1ccncc1)C(=O)O; NMeE = CN[C@@H](CCC(=O)O)C(=O)O; dHyp = O=C(O)[C@H]1C[C@H](O)CN1; X7 = CC[C@@H](C(=O)[*:1])[*:2]; Ahp(2) = CCCCC[C@H](N)C(=O)O; NMeS = CN[C@@H](CO)C(=O)O; αMeS = C[C@](N)(CO)C(=O)O; Carboxymethyl = O=C(O)C*; NMeA = CN[C@@H](C)C(=O)O; Nle = CCCC[C@H](N)C(=O)O; Sar = CNCC(=O)O
# Biological target: T1, human soluble TNFR1 (sTNFR1) (Homo sapiens, UniProt P19438)
# T1 construct: made in house; host or cells: Sf21 (baculovirus)
# T1 sequence (P19438 with tags, fused parts or gaps): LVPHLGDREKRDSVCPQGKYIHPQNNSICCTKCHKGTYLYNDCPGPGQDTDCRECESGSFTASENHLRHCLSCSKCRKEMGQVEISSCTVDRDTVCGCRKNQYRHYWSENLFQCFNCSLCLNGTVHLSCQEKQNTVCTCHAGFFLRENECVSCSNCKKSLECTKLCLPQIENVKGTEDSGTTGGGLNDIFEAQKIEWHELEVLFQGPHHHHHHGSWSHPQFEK
# Assay: Human sTNFR1-peptide displacement assay (LanthaScreen Eu TR-FRET binding assay)
# Outline: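 Readout is the 665/615 nm TR-FRET ratio (Eu anti-His donor, streptavidin-Alexa647 acceptor), normalized to DMSO and saturating displacer, fit by Morrison-based five-parameter logistic for Kd^app. His-tagged sTNFR1 (1-211) prebound to 100 nM biotinylated peptide SEQ ID NO.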
Compound,Kd,IC50
"CCCC[C@@H]1NC(=O)[C@@H]2CC[C@@H](C2)NC(=O)[C@H]([C@@H](C)c2c[nH]c3c(OC)cccc23)NC(=O)CN(C)C(=O)[C@H](Cc2ccc(O)cc2)NC(=O)[C@H](Cc2ccc(C(=O)O)cc2)NC(=O)[C@](C)(CO)NC(=O)[C@H](Cc2c[nH]c3c(Cl)cccc23)NC(=O)[C@H](Cc2ccncc2)NC(=O)[C@H](CC(N)=O)NC(=O)[C@H]2CC(F)(F)CN2C(=O)[C@H](Cc2c[nH]c3ccccc23)NC(=O)[C@@H]2CNCCN2C(=O)[C@H](Cc2ccncc2)NC1=O [SEQ ID NO. 266] (cyclo([4Pal][Trp(7-Cl)][αMeS][Phe(4-COOH)]Y[Sar][Trp(βS-Me,7-OMe)][X1][Nle][4Pal][Pip(4-aza)]W[dPro(4,4-F2)]N))",0.45 nM,–
"CCCC[C@@H]1NC(=O)[C@@H]2CC[C@@H](C2)NC(=O)[C@H]([C@@H](C)c2c[nH]c3c(OC)cccc23)NC(=O)CN(C)C(=O)[C@H](Cc2ccc(C(=O)O)cc2)NC(=O)[C@H](Cc2ccc(C(N)=O)cc2)NC(=O)[C@](C)(CO)NC(=O)[C@H](Cc2c[nH]c3c(C#N)cccc23)NC(=O)[C@H](Cc2ccc(C(=O)O)cc2)NC(=O)[C@H](CC(N)=O)NC(=O)CN(CCC(N)=O)C(=O)[C@H](Cc2c[nH]c3ccccc23)NC(=O)[C@@H]2CC[C@@H](O)CN2C(=O)[C@H](Cc2ccncc2)NC1=O [SEQ ID NO. 130] (cyclo([4Pal][Pip(5R-OH)]W[Gly(Nα-CH2CH2CONH2)]N[Phe(4-COOH)][Trp(7-CN)][αMeS][Phe(4-CONH2)][Phe(4-COOH)][Sar][Trp(βS-Me,7-OMe)][X1][Nle]))",0.01 nM,–
"CCCC[C@@H]1NC(=O)CSC[C@@H](C(N)=O)NC(=O)[C@H]([C@@H](C)c2c[nH]c3c(OC)cccc23)NC(=O)CN(C)C(=O)[C@H](Cc2ccc(O)cc2)NC(=O)[C@H](Cc2ccc(C(=O)O)cc2)NC(=O)[C@](C)(CO)NC(=O)[C@H](Cc2c[nH]c3c(Cl)cccc23)NC(=O)[C@H](Cc2ccc(OCC(=O)O)cc2)NC(=O)[C@H](CC(N)=O)NC(=O)[C@H](CCC(=O)O)N(C)C(=O)[C@H](Cc2c[nH]c3ccccc23)NC(=O)[C@@H]2COC(C)(C)CN2C(=O)[C@H](Cc2ccncc2)NC1=O [SEQ ID NO. 179] ({CH2CO}-[Nle][4Pal][Morpholine(3S-CO,6,6-Me2)]W[NMeE]NY(Carboxymethyl)[Trp(7-Cl)][αMeS][Phe(4-COOH)]Y[Sar][Trp(βS-Me,7-OMe)]C-NH2; thioether N-14)",0.29 nM,0.5 nM
"CCCC[C@@H]1NC(=O)[C@@H]2CC[C@@H](C2)NC(=O)[C@H]([C@@H](C)c2c[nH]c3c(OC)cccc23)NC(=O)CN(C)C(=O)[C@H](Cc2ccc(C(=O)O)cc2)NC(=O)[C@H](Cc2ccc(C(N)=O)cc2)NC(=O)[C@](C)(CO)NC(=O)[C@H](Cc2c[nH]c3c(Cl)cccc23)NC(=O)[C@H](Cc2ccncn2)NC(=O)[C@H](CC(N)=O)NC(=O)[C@H]2C[C@H](O)CN2C(=O)[C@H](Cc2c[nH]c3ncccc23)NC(=O)[C@@H]2CC[C@@H](O)CN2C(=O)[C@H](Cc2ccncc2)NC1=O [SEQ ID NO. 159] (cyclo([4Pal][Pip(5R-OH)][Trp(7-aza)][dHyp]N[X19][Trp(7-Cl)][αMeS][Phe(4-CONH2)][Phe(4-COOH)][Sar][Trp(βS-Me,7-OMe)][X1][Nle]))",0.12 nM,–
"CCCC[C@@H]1NC(=O)[C@@H]2CC[C@@H](C2)NC(=O)[C@H]([C@@H](C)c2c[nH]c3c(OC)cccc23)NC(=O)CN(C)C(=O)[C@H](Cc2ccc(C(N)=O)cc2)NC(=O)[C@H](Cc2ccc(C(N)=O)cc2)NC(=O)[C@](C)(CO)NC(=O)[C@H](Cc2c[nH]c3c(C#N)cccc23)NC(=O)[C@H](Cc2ccc(C(=O)O)cc2)NC(=O)[C@H](CC(N)=O)NC(=O)[C@H](CCC(=O)O)N(C)C(=O)[C@H](Cc2c[nH]c3ccccc23)NC(=O)[C@@H]2CC[C@@H](O)CN2C(=O)[C@H](Cc2ccncc2)NC1=O [SEQ ID NO. 19] (cyclo([4Pal][Pip(5R-OH)]W[NMeE]N[Phe(4-COOH)][Trp(7-CN)][αMeS][Phe(4-CONH2)][Phe(4-CONH2)][Sar][Trp(βS-Me,7-OMe)][X1][Nle]))",0.08 nM,–
"CCCC[C@@H]1NC(=O)[C@@H]2CC[C@@H](C2)NC(=O)[C@H]([C@@H](C)c2c[nH]c3c(OC)cccc23)NC(=O)CN(C)C(=O)[C@H](Cc2cccc(CC(N)=O)c2)NC(=O)[C@H](Cc2ccc(C(=O)O)cc2)NC(=O)[C@](C)(CO)NC(=O)[C@H](Cc2c[nH]c3c(Cl)cccc23)NC(=O)[C@H](Cc2ccncc2)NC(=O)[C@H](CC(N)=O)NC(=O)[C@H](CCC(=O)O)N(C)C(=O)[C@H](Cc2c[nH]c3ccccc23)NC(=O)[C@@H]2CNCCN2C(=O)[C@H](Cc2ccncc2)NC1=O [SEQ ID NO. 153] (cyclo([4Pal][Trp(7-Cl)][αMeS][Phe(4-COOH)][X29][Sar][Trp(βS-Me,7-OMe)][X1][Nle][4Pal][Pip(4-aza)]W[NMeE]N))",0.23 nM,–
"CCCC[C@@H]1NC(=O)[C@@H]2CC[C@@H](C2)NC(=O)[C@H]([C@@H](C)c2c[nH]c3c(OC)cccc23)NC(=O)CN(C)C(=O)[C@H](Cc2ccc(C(N)=O)cc2)NC(=O)[C@H](Cc2ccc(C(N)=O)cc2)NC(=O)[C@](C)(CO)NC(=O)[C@H](Cc2c[nH]c3c(Cl)cccc23)NC(=O)[C@H](Cc2ccncc2)NC(=O)[C@H](CC(N)=O)NC(=O)[C@H](CCC(=O)O)N(C)C(=O)[C@H](Cc2c[nH]c3ncccc23)NC(=O)[C@@H]2CC[C@@H](O)CN2C(=O)[C@H](Cc2ccncc2)NC1=O [SEQ ID NO. 189] (cyclo([4Pal][Trp(7-Cl)][αMeS][Phe(4-CONH2)][Phe(4-CONH2)][Sar][Trp(βS-Me,7-OMe)][X1][Nle][4Pal][Pip(5R-OH)][Trp(7-aza)][NMeE]N))",0.01 nM,–
"CCCCC[C@@H]1NC(=O)[C@@H]2CC[C@@H](C2)NC(=O)[C@H]([C@@H](C)c2c[nH]c3c(OC)cccc23)NC(=O)CN(C)C(=O)[C@H](Cc2ccc(C(N)=O)cc2)NC(=O)[C@H](Cc2ccc(C(N)=O)cc2)NC(=O)[C@](C)(CO)NC(=O)[C@H](Cc2c[nH]c3c(C#N)cccc23)NC(=O)[C@H](Cc2ccc(C(=O)O)cc2)NC(=O)[C@H](CC(N)=O)NC(=O)[C@H]2C[C@H](OCC(=O)O)CN2C(=O)[C@H](Cc2c[nH]c3ccccc23)NC(=O)[C@@H]2CNCCN2C(=O)[C@H](Cc2ccncc2)NC1=O [SEQ ID NO. 140] (cyclo([4Pal][Pip(4-aza)]W[dHyp](Carboxymethyl)N[Phe(4-COOH)][Trp(7-CN)][αMeS][Phe(4-CONH2)][Phe(4-CONH2)][Sar][Trp(βS-Me,7-OMe)][X1][Ahp(2)]))",0.06 nM,–
"CCCC[C@@H]1NC(=O)[C@H](CC)SC[C@@H](C(N)=O)NC(=O)[C@H]([C@@H](C)c2c[nH]c3c(OC)cccc23)NC(=O)CN(C)C(=O)[C@H](Cc2ccc(O)cc2)NC(=O)[C@H](Cc2ccc(C(N)=O)cc2)NC(=O)[C@](C)(CO)NC(=O)[C@H](Cc2c[nH]c3c(Cl)cccc23)NC(=O)[C@H](Cc2ccc(C(=O)O)cc2)NC(=O)[C@H](CC(N)=O)NC(=O)[C@H](CCC(=O)O)N(C)C(=O)[C@H](Cc2c[nH]c3ncccc23)NC(=O)[C@@H]2CC[C@@H](O)CN2C(=O)[C@H](Cc2ccncc2)NC1=O [SEQ ID NO. 168] ([Nle][4Pal][Pip(5R-OH)][Trp(7-aza)][NMeE]N[Phe(4-COOH)][Trp(7-Cl)][αMeS][Phe(4-CONH2)]Y[Sar][Trp(βS-Me,7-OMe)]C-NH2; linker N-14 via X7)",–,0.3 nM
C[C@H]1C(=O)N[C@@H](CC(N)=O)C(=O)N[C@@H](Cc2ccncc2)C(=O)N[C@@H](Cc2c[nH]c3ccccc23)C(=O)N[C@@](C)(CO)C(=O)N[C@@H](Cc2ccc(C(=O)O)cc2)C(=O)N[C@@H](Cc2ccc(O)cc2)C(=O)N(C)CC(=O)N[C@@H](Cc2c[nH]c3ccccc23)C(=O)N[C@H](C(N)=O)CSCC(=O)N[C@@H](CCc2ccccc2)C(=O)N[C@@H](Cc2ccc(O)cc2)C(=O)N[C@@H](CO)C(=O)N[C@@H](Cc2c[nH]c3c(F)cccc23)C(=O)N1C [SEQ ID NO. 263] ({CH2CO}-[hPhe]YS[Trp(7-F)][NMeA]N[4Pal]W[αMeS][Phe(4-COOH)]Y[Sar]WC-NH2; thioether N-14),–,2.88 nM
"CCCC[C@@H]1NC(=O)[C@@H]2CC[C@@H](C2)NC(=O)[C@H]([C@@H](C)c2c[nH]c3c(OC)cccc23)NC(=O)CN(C)C(=O)[C@H](Cc2ccc(OC)cc2)NC(=O)[C@H](Cc2ccc(C(=O)O)cc2)NC(=O)[C@](C)(CO)NC(=O)[C@H](Cc2c[nH]c3c(Cl)cccc23)NC(=O)[C@H](Cc2ccc(C(N)=O)cc2)NC(=O)[C@H](CCC(N)=O)NC(=O)[C@H](CCC(=O)O)N(C)C(=O)[C@H](Cc2c[nH]c3ccccc23)NC(=O)[C@@H]2CNCCN2C(=O)[C@H](Cc2ccncc2)NC1=O [SEQ ID NO. 240] (cyclo([4Pal][Pip(4-aza)]W[NMeE]Q[Phe(4-CONH2)][Trp(7-Cl)][αMeS][Phe(4-COOH)]Y(Me)[Sar][Trp(βS-Me,7-OMe)][X1][Nle]))",0.23 nM,–
CCCC[C@@H]1NC(=O)CSC[C@@H](C(N)=O)NC(=O)[C@H]([C@@H](C)c2c[nH]c3cccc(OC)c23)NC(=O)CN(C)C(=O)[C@H](Cc2ccc(O)cc2)NC(=O)[C@H](Cc2ccc(C(N)=O)cc2)NC(=O)[C@](C)(CO)NC(=O)[C@H](Cc2c[nH]c3c(Cl)cccc23)NC(=O)[C@H](Cc2ccc(C(=O)O)cc2)NC(=O)[C@H](CC(N)=O)NC(=O)[C@H](CCC(=O)O)N(C)C(=O)[C@H](Cc2c[nH]c3ncccc23)NC(=O)[C@H](CO)N(C)C(=O)[C@H](Cc2ccncc2)NC1=O [SEQ ID NO. 209] ({CH2CO}-[Nle][4Pal][NMeS][Trp(7-aza)][NMeE]N[Phe(4-COOH)][Trp(7-Cl)][αMeS][Phe(4-CONH2)]Y[Sar][X5]C-NH2; thioether N-14),0.67 nM,0.6 nM
